Results from ChEMBL document CHEMBL4308881, “Tetradehydrohalicyclamine B, a new proteasome inhibitor from the marine sponge Acanthostrongylophora ingens” (Bioorg Med Chem Lett, 2019).
The source made the active and inactive calls. No cut-off for these calls is given here.

What was measured:
Type in all cases: cell-based
HeLa [1] = experiment: Cytotoxicity against human HeLa cells at 50 uM after 3 days by MTT assay; settings: 72 h
[2] = target: T1, Proteasome subunit beta type-10 (Homo sapiens) (UniProt P40306); experiment: Inhibition of 20s immunoproteasome MECL1 in human erythrocytes at 15 uM using Suc-Leu-Leu-ValTyr-MCA as substrate preincubated for 10 mins followed by substrate addition and measured after 6 hrs by fluorescence assay
T1 sequence (whole entry): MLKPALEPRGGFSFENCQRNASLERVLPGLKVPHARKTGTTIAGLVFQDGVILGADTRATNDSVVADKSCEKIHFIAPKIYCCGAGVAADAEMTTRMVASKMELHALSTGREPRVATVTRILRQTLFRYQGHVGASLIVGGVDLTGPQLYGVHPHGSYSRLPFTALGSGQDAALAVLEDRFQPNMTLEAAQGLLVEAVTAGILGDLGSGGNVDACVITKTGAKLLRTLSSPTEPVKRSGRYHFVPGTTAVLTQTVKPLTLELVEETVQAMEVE

[3] = target: T2, Proteasome Macropain subunit MB1 (Homo sapiens, UniProt P28074); experiment: Inhibition of 20s constitutive proteasome beta5 chymotrypsin-like activity in human erythrocytes using Suc-Leu-Leu-ValTyr-MCA as substrate preincubated for 10 mins followed by substrate addition and measured after 6 hrs by fluorescence assay
T2 sequence (P28074 whole entry): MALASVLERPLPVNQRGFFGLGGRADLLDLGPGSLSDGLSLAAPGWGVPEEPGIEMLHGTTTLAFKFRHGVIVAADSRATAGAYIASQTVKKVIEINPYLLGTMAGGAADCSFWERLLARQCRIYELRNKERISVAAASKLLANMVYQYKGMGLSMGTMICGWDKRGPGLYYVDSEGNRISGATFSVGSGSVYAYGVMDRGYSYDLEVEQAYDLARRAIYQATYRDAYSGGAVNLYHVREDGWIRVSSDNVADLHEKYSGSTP

[4] = target: T3, Proteasome subunit beta type-8 (Homo sapiens, UniProt P28062); experiment: Inhibition of 20s immunoproteasome LMP7 in human erythrocytes using Suc-Leu-Leu-ValTyr-MCA as substrate preincubated for 10 mins followed by substrate addition and measured after 6 hrs by fluorescence assay
T3 sequence (P28062 whole entry): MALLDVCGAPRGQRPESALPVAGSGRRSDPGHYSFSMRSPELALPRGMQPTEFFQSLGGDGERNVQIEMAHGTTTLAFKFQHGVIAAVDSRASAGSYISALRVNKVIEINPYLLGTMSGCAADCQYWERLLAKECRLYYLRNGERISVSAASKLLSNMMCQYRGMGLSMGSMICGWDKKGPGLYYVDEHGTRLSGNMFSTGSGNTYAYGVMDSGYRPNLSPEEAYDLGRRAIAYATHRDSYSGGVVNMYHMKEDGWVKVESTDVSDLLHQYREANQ

[5] = target: T4, Proteasome subunit beta type-9 (Homo sapiens, UniProt P28065); experiment: Inhibition of 20s immunoproteasome LMP2 in human erythrocytes using Ac-Pro-Ala-Leu-MCA as substrate preincubated for 10 mins followed by substrate addition and measured after 6 hrs by fluorescence assay
T4 sequence (P28065 whole entry): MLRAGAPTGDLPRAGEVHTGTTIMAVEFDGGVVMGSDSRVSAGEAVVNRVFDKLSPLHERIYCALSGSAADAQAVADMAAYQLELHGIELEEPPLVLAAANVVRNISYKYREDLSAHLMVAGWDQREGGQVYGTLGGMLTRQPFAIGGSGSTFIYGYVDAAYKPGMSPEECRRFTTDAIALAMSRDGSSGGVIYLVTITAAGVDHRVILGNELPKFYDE

[6] = target: T5, Proteasome subunit beta type-10 (Homo sapiens, UniProt P40306); experiment: Inhibition of 20s immunoproteasome MECL1 in human erythrocytes using Suc-Leu-Leu-ValTyr-MCA as substrate preincubated for 10 mins followed by substrate addition and measured after 6 hrs by fluorescence assay
T5 sequence (P40306 whole entry): T1 sequence (whole entry)

HeLa [7] = experiment: Cytotoxicity against human HeLa cells after 3 days by MTT assay; settings: 72 h

| Compound | Activity (HeLa [1]) | inhibition [2] | IC50 [3] | IC50 [4] | IC50 [5] | IC50 [6] | IC50 (HeLa [7]) |
| --- | --- | --- | --- | --- | --- | --- | --- |
| C1=C\CCc2cc3c[n+](c2)CCCC/C=C\CC[C@@H]2CN(CCCC/1)CC[C@@H]32 | Non-Toxic | inactive | 1800 nM | 4100 nM | 3100 nM |  |  |
| C1=C2CN3CCCC/C=C\CC[C@@H]4CN(CCCC/C=C\CC[C@H]1C3)CC[C@@H]24 |  |  | 420 nM | 630 nM | 440 nM | 8 µM | 12 µM |
